Experimental data reported in publication PMC9607282 (Pharmaceutics, 2022).
Values after ≈ are worked out from the molar mass of the structure shown. Where two headings read alike, the source gives them in different places.

Columns and labels:
E. coli (ATCC 25922) = test: MIC quality control, agar dilution (CLSI M07-A9); assay type: cell-based; conditions: Escherichia coli, ATCC25922, quality control strain
From the text: E. coli (ATCC 25922) and chloramphenicol were used as quality control, and the experimental results were only valid when the MIC was within the quality control range.

[1] = Adverse reactions after single intramuscular injection in pigs; conditions: single dose ADP 5, SMZ 25, ADP/SMZ 5/25 mg/kg b.w.
Protocol: (§1) Twenty-four pigs were randomly divided into 4 groups with 3 healthy groups and 1 infected group. […] The infected group was infected with G. parasuis H78 for 3 days.
A single dose of 5 mg/kg b.w., 25 mg/kg b.w., and 5/25 mg/kg b.w.

G. parasuis H78 [2] = test: PK-PD integration, sigmoid Emax model on ex vivo time killing in PELF; assay type: cell-based, Glaesserella parasuis; conditions: ADP/SMZ injection 5/25 mg/kg b.w. i.m.
Protocol: The association between antimicrobial efficiency and the ex vivo PK-PD parameters of AUC0−24h/MIC ratios was simulated by using the model of Emax inhibitory Sigmoid.

G. parasuis H78 [3] = test: Mutant prevention concentration (MPC), agar dilution; assay type: cell-based, Glaesserella parasuis
Protocol: (§2) The MIC and MBC of G. parasuis H78 in broth and pulmonary epithelial lining fluid (PELF) were determined by the broth dilution method according to the CLSI M07-A9 standard with some modifications. The MPC of G. parasuis H78 in broth was determined by the agar dilution method recommended by CLSI M07-A9. The post-antimicrobial effect (PAE) was determined by the method of bacterial and drug removal after incubation.

G. parasuis H78 [4] = test: Post-antimicrobial effect (PAE); assay type: cell-based, Glaesserella parasuis
Protocol: as §2

[5] = Pharmacokinetics in plasma and PELF of healthy pigs after intramuscular injection; assay type: in vivo; conditions: for T 1/2λ / AUC(0-t) / Cmax / Tmax / MRT last: n = 6; for AUC(0-t) / Cmax / Tmax / MRT last: pig, im; for AUC(0-t): AUC 24h; for MRT last: read-out: MRT 24h
Protocol: as §1
(§3) Add 3 mL of a mixture of dichloromethane and acetonitrile, and vortex centrifuge for 5 min at 10,000 rpm for 10 min. Remove the supernatant into a 10 mL centrifuge tube. Add 3 mL of dichloromethane and acetonitrile to the residue. Extract once again as described above. Combine the supernatant twice, and dissolve the residue with 1 mL of the initial mobile phase. Vortex to mix. Add 1 mL of n-hexane, remove the n-hexane layer (upper layer) to achieve the purpose of degreasing, and then use a 0.22-μm filter membrane to obtain a sample purification solution.
(§4) A C18 reverse phase column (250 mm × 4.6 mm, i.d., 5 µm, Agilent, Santa Clara, CA, USA) was used for HPLC, which was executed at a detection wavelength of 270 nm at 25 °C. The mobile phase comprised 0.1% trifluoroacetic acid (phase A) and 100% methanol (phase C) with a mobile phase flow rate of 1 mL/min.
(§5) The urea dilution method was used to determine the volume of PELF as described previously. The concentration of urea and PELF were determined by the urease-glutamate dehydrogenase enzymatic method with an automatic biochemical analyzer (SYNCHRON CX4 PRO; Beckman, Brea, CA, USA) at the National Reference Laboratory of Veterinary Drug Residues (Wuhan, China).

[6] = Pharmacokinetics in plasma and PELF of pigs infected with G. parasuis H78 after intramuscular injection; assay type: in vivo; conditions: for T 1/2λ: infected group, ADP/SMZ injection 5/25 mg/kg b.w. i.m., n = 6; for Tmax: pig, im
Protocol: as §1, §3, §4, §5

[7] = six-month-old castrated boar ref 22; cited from earlier work
[8] = PELF, PELF, healthy group, ADP/SMZ injection 5/25 mg/kg b.w. i.m.
[9] = PELF, PELF, healthy pigs, single drug i.m.: ADP 5 mg/kg b.w., SMZ 25 mg/kg b.w.
[10] = plasma, plasma, healthy group, ADP/SMZ injection 5/25 mg/kg b.w. i.m.
[11] = plasma, plasma, healthy pigs, single drug i.m.: ADP 5 mg/kg b.w., SMZ 25 mg/kg b.w.

## O=C(N[C@H](CO)[C@H](O)c1ccc([N+](=O)[O-])cc1)C(Cl)Cl [chloramphenicol]
E. coli (ATCC 25922)
  MIC: 4 µg/mL (≈ 12.4 µM)

## COc1cc(Cc2cnc(N)nc2N)cc(OC)c1N(C)C [ADP, Aditoprim]
[1]
  adverse reactions after intramuscular injection: No serious adverse reactions
G. parasuis H78 [2]; healthy group
  (AUC24h/MIC)ex (E = 0): 32.25 h
  (AUC24h/MIC)ex (E = −3): 113.28 h
  (AUC24h/MIC)ex (E = −4): 221.41 h
  E 0: −4.78 Log10CFU/mL
  EC 50 (AUC0−24h/MIC giving 50% of Emax): 56.4 h
  Emax: 2.07 Log10CFU/mL
  Emax − E0: 6.85 Log10CFU/mL
  N (Hill coefficient): 1.5
G. parasuis H78 [2]; infected group
  (AUC24h/MIC)ex (E = 0): 27.19 h
  (AUC24h/MIC)ex (E = −3): 102.29 h
  (AUC24h/MIC)ex (E = −4): 204.17 h
  E 0: −4.8 Log10CFU/mL
  EC 50 (AUC0−24h/MIC giving 50% of Emax): 48.06 h
  Emax: 2.15 Log10CFU/mL
  Emax − E0: 6.95 Log10CFU/mL
  N (Hill coefficient): 1.41
G. parasuis H78 [3]
  MPC: 20 µg/mL
G. parasuis H78 [4]; 1 × MIC, exposure 1 h
  PAE: 0.02 h
G. parasuis H78 [4]; 1 × MIC, exposure 2 h
  PAE: 0.40 h
G. parasuis H78 [4]; 2 × MIC, exposure 1 h
  PAE: 0.11 h
G. parasuis H78 [4]; 2 × MIC, exposure 2 h
  PAE: 0.43 h
G. parasuis H78 [4]; 4 × MIC, exposure 1 h
  PAE: 0.20 h
G. parasuis H78 [4]; 4 × MIC, exposure 2 h
  PAE: 0.48 h
[5]; LOD 0.05 µg/mL, HPLC
  concentration in PELF after 36 h: below LOD
  concentration in plasma after 24 h: below LOD
[5]; PELF, healthy group, ADP/SMZ injection 5/25 mg/kg b.w. i.m.
  T 1/2λ: 6.05 ± 0.20 h
[5]; PELF, healthy pigs, single drug i.m.: ADP 5 mg/kg b.w., SMZ 25 mg/kg b.w.
  T 1/2λ: 6.42 ± 0.43 h
[5]; [8]
  AUC(0-t): 49100 ± 520 ng·h/mL
  Cmax: 6780 ± 110 ng/mL
  Tmax: 1.95 ± 0.06 h
  MRT last: 6.88 ± 0.11 h
[5]; [9]
  AUC(0-t): 44800 ± 540 ng·h/mL
  Cmax: 6880 ± 140 ng/mL
  Tmax: 2 h
  MRT last: 6.43 ± 0.09 h
[5]; [10]
  AUC(0-t): 7710 ± 260 ng·h/mL
  Cmax: 870 ± 90 ng/mL
  Tmax: 2 h
  MRT last: 7.76 ± 0.26 h
[5]; [11]
  AUC(0-t): 7590 ± 240 ng·h/mL
  Cmax: 920 ± 80 ng/mL
  Tmax: 1 h
  MRT last: 7.63 ± 0.27 h
[5]; plasma, healthy group, ADP/SMZ injection 5/25 mg/kg b.w. i.m.
  T 1/2λ: 7.97 ± 0.81 h
[5]; plasma, healthy pigs, single drug i.m.: ADP 5 mg/kg b.w., SMZ 25 mg/kg b.w.
  T 1/2λ: 8.8 ± 0.53 h
[6]; PELF
  T 1/2λ: 6.48 ± 0.62 h
  Tmax: 1.96 ± 0.05 h
[6]; plasma
  Tmax: 2 h
  T 1/2λ: 8.45 ± 0.61 h
[7]
  apparent distribution volume: > 1.4 L/kg
  elimination half-life: > 2.25 h

## Cc1cc(NS(=O)(=O)c2ccc(N)cc2)no1 [SMZ, Sulfamethoxazole, reference compound]
[1]
  adverse reactions after intramuscular injection: No serious adverse reactions
G. parasuis H78 [2]; healthy group
  E 0: −4.4 Log10CFU/mL
  Emax: 2.3 Log10CFU/mL
  Emax − E0: 6.7 Log10CFU/mL
  N (Hill coefficient): 1.56
G. parasuis H78 [2]; infected group
  E 0: −4.55 Log10CFU/mL
  Emax: 2.36 Log10CFU/mL
  N (Hill coefficient): 1.52

## COc1cc(Cc2cnc(N)nc2N)cc(OC)c1OC [TMP, trimethoprim, reference compound]
[7]
  apparent distribution volume: 1.4 L/kg
  elimination half-life: 2.25 h
